The test system of one series is A549 cells. The experiment in a line: In-vitro cytotoxicity, MTT assay. To be noted: 24 hours.
The test system of another series is human skin. The series is described as follows: Skin irritancy patch test. To be noted: occluded patch, neat. The class given is in vivo. As to the method:
The objective of the study was to determine skin irritancy potential of the nanoemulsion hand sanitizer products of the invention. The study was conducted according to internationally recognized Good Clinical Practice Guidelines. Permission to conduct the study was covered under the protocol approval for project MREC/H/48/2014: CR of the Research, Ethics and Publications Committee of the Sefako Makgatho Health Sciences University. Recruitment for the study began two weeks before the commencement of the study and approximately 25 panellists were recruited according to the study requirements, to commence the study with a test panel of 20. Potential panellists attended a series of study briefings held during the week prior to the study. Panellists were verbally briefed and given the Study Instructions, Informed Consent forms (plus coloured duplicate copies of the latter).
Panellists were given specifically timed appointments for the whole study. Unless otherwise stated in the summary, twenty adult female volunteers were used, of whom five had sensitive skins (as determined from the subject enrolment questionnaire). Signed consent forms were obtained from all subjects. Subjects with a history of clinical dermal abnormalities or who are taking or using medication which may affect test results through mediation of the inflammatory response were excluded. […]
Briefly, the study procedure was as follows; Controls and products were applied to the inner forearm of each volunteer in a randomized, blinded pattern at zero hours and repeated on the same position at 24 hours. A measured volume of control or pieces of product was placed in the respective chamber and the chamber attached to the forearm. […]
The protocol uses 1% sodium lauryl sulphate (SLS) solution as a positive control and de-ionized water as a negative control. A measured amount of 0.02 ml of sodium lauryl sulphate and de-ionized water was applied. […]
The maximum irritancy (as calculated by the mean visual score+one standard deviation of the visual score) for the products and the controls is tabulated below. […]

Another series relates to HIV-1 pseudovirus. To be noted: infection of 100 TCID50; cited from earlier work.

Consider `C=C(C)[C@@H]1CCC(C)=C[C@H]1c1c(O)cc(CCCCC)cc1O` [CBD, cannabidiol], for which the “cytotoxicity (in words)” value in the series on A549 cells was “significant toxicity”.
In the case of `CCCCCCCCCCCCOS(=O)(=O)[O-].[Na+]` [H, Sodium Lauryl Sulphate], the “Maximum value (mean visual score + sd)” value in the series on human skin (0-3 scale, 20 panellists) turned out to be 2.18. Further, in the series with human skin, the “Conclusion (irritancy category)” value is on record as “Irritant (product mean visual score+SD >1.5—Product is irritant)” and the “Time point (hours) of maximum value” worked out at 72 h.

B1: cyanovirin-N (protein, UniProt P81180 1-101, looked up)
Cyanovirin-N: LGKFSQTCYNSAIQGSVLTSTCERTNGGYNTSSIDLNSVIENVDGSLKWQPSNFIETCRNTQLAGSSELAAECKTRAQQFVSTKINLDDHIANIDGTLKYE
Take B1: the “cytotoxicity (in words)” value in the series with A549 cells is on record as “significant toxicity”. The “reported IC50 (as mass)” value in the series on HIV-1 pseudovirus is 22 to 340 µg.

(Values after patent US20250009614A1 (priority 2021, published 2025).)
